We go through seven compounds from patent US4873346A, “Substituted benzothiazoles, benzimidazoles, and benzoxazoles” (The Upjohn Company, priority 1985, dated 1989).

In one assay the test system is SRS-A formation. Kind of assay: SRS-A inhibition in rat mononuclear cells challenged with calcium ionophore. Type of assay: cell-based. The note with it: cysteine. The protocol: This test is conducted in rat mononuclear cells incubated in the presence of cysteine and challenged with a calcium ionophore (which induces SRS-A formation).
The next assay concerns mucus secretion. Nature of the assay: canine tracheal secretion model (inhibitory effect on mucus secretion). It counts as in vivo. As to the method:
Several of the compounds of the present invention were also tested for their inhibitory effect on mucus secretion in the canine tracheal secretion model.

The subject of another assay is lipoxygenase. Nature of the assay: lipoxygenase inhibition, oxygen uptake of washed human platelets after arachidonic acid. It counts as cell-based. The protocol:
Some ot the compounds of the present invention were also tested for lipoxygenase inhibition. Arachidonic acid is added to washed human platelets and the oxygen uptake is measured using oxygraph cells. A decrease of oxygen uptake versus the control cell indicates inhibition of lipoxygenase. For a full description of the procedure see, Wallach, et al., Biochim, Biophys. Acta. 231:445 (1976).

Structures can show the parent of a compound that is named as a salt.

For `C=CCNc1nc2ccc(O)cc2s1` [2-(2-propenylamino)-6-benzothiazolol, 2-(2-Propenylamino)-6-benzothiazolol], the “inhibition of the leukotriene system (in words)” value in the assay with SRS-A formation was “active”. Moreover, the “inhibition of mucus secretion (in words)” value in the assay on mucus secretion is reported as “caused inhibition of mucus secretion”. For the same compound, the “inhibition of the lipoxygenase system (in words)” value with lipoxygenase is “active”.
As to `COC(=O)CCCCCSc1nc2ccc(NC(=O)CCC(=O)O)cc2s1` [6-[[6-[(3-Carboxy-1-oxopropyl)amino]-2-benzothiazolyl]thio]hexanoic acid methyl ester, tromethamine salt], the “inhibition of mucus secretion (in words)” value in the assay on mucus secretion is on record as “caused inhibition”.
On to `CCN(CC)CCCNc1nc2ccc(O)cc2s1.Cl.Cl` [2-[[3-(Diethylamino)propyl]amino]-6-benzothiazolol Dihydrochloride], for which the “inhibition of mucus secretion (in words)” value with mucus secretion is listed as “caused inhibition”.
Same read-out and setting: the value for `CCN(CC)CCCNc1nc2ccc(O)cc2s1` [2-[[3-(Diethylamino)propyl]amino]-6-benzothiazolol, hydroquinone dihydrochloride salt] was “caused inhibition”.
Turning to `COC(=O)CCCCCNc1nc2ccc(O)cc2s1` [6-[(6-hydroxy-2-benzothiazolyl)aminohexanoic acid methyl ester], in the assay on mucus secretion (Indomethacin blocked/AA induced), the “inhibition on Indomethacin blocked/Arachidonic Acid (AA) induced mucus secretion” value was determined as 100%. The “inhibition on baseline mucus secretion” value in the assay with mucus secretion (baseline) came out at 21.8%. Further, in the assay on mucus secretion (hypoxia), the “inhibition on hypoxia mucus secretion” value is on record as 63.4%.
Regarding `C=CCCCCSc1nc2ccc(O)cc2s1.O=C(O)/C=C\C(=O)O` [2-(5-hexenylthio)-6-benzothiazolol maleic acid salt], the “inhibition of mucus secretion (in words)” value with mucus secretion is “caused inhibition”.
`C=CCCCCSc1nc2ccc(O)cc2[nH]1` [2-(5-hexenylthio)-H-benzimidazol-6-ol, 2-(5-Hexenylthio)-1H-benzimidazol-6-ol]: the “inhibition of mucus secretion (in words)” value in the assay with mucus secretion was “caused inhibition”.
